Test results: patent US11787849B2, “Methods and compounds for eliminating immune responses to therapeutic agents” (IMCYSE SA, priority 2015, dated 2023)

How the values were obtained:
[1] = test system: CD4+ T cells; details: peptide adsorbed on aluminum hydroxide, SC injection; known from WO200817517; cited from earlier work
[2] = test system: CD4+ T cells; assay: Vaccination with peptide (redox motif + epitope) adsorbed on aluminum hydroxide, SC: induction of cytolytic CD4+ T cells; format: in vivo, human
Description: A vaccination strategy making use of a mixture of two peptides encompassing the minimal binding sequence of class II-restricted epitopes and a thioreductase motif is therefore established.
Administration of a mixture of these two peptides adsorbed on aluminum hydroxide elicits specific CD4+ T cells with cytolytic properties.
Patients in need for EPO injection are vaccinated by administration of peptide [SEQ ID NO:18] using a standard procedure of peptide adsorbed on aluminum hydroxide and administered by SC injection.
Patients affected by Fabry disease are immunized with peptide of SEQ ID NO:21, using a standard procedure of peptide adsorbed on aluminium hydroxide and administered by SC injection.
The mammalian expression vector pCMV with cytomegalovirus promotor is engineered to allow the expression in CHO (Chinese hamster ovary) cells of any protein for replacement therapy, in fusion with the promiscuous CLIP-derived epitope described in example 2 [SEQ ID NO:17]. Patients in need for injection with a protein for replacement therapy are first vaccinated by administration of a peptide comprising a thioreductase motif and the modified CLIP-derived epitope described in example 2 [SEQ ID NO:18].

[3] = test system: cytolytic CD4+ T cells; assay: Administration of epitope-tagged therapeutic protein to a previously vaccinated / cell-treated individual: activation of cytolytic CD4+ T cells and immune response to the protein; format: in vivo, human; details: individual pretreated with the matching redox-motif peptide or with autologous cells activated by it
Description: Recombinant alpha-galactosidase can be modified as to contain the sequence of a class II-restricted promiscuous T cell epitope added at the amino-terminal end of the molecule.
The promiscuous nature of the CLIP-modified epitope makes it possible to use the same vaccine and the same EPO molecule for any patient in need of such therapy, regardless of its HLA profile.

In the case of “CPYC-VR-FFMATRLLMQAL (CPYCVRFFMATRLLMQAL; CxxC redox motif + modified clip peptide) [SEQ ID NO:18]”, the “elicitation of epitope-specific cytolytic CD4+ T cells” value [1] is listed as “elicit epitope-specific cytolytic CD4+ T cells”.

In the case of “CPYC-LF-LKSDGRVKYTLN (CPYCLFLKSDGRVKYTLN; CxxC + redox motif apolipoprotein B-100 epitope) [SEQ ID NO:21]”, the “elicitation of specific CD4+ T cells with cytolytic properties” value [2] is reported as “Epitope-specific cytolytic CD4+ T cells are then produced”.

B1: modified alpha-galactosidase: recombinant alpha-galactosidase modified to contain the LFLKSDGRVKYTLN promiscuous epitope (protein)
chain: LFLKSDGRVKYTLNDNGLARTPTMGWLHWERFMCNLDCQEEPDSCISEKLFMEMAELMVSEGWKDAGYEYLCIDDCWMAPQRDSEGRLQADPQRFPHGIRQLANYVHSKGLKLGIYADVGNKTCAGFPGSFGYYDIDAQTFADWGVDLLKFDGCYCDSLENLADGYKHMSLALNRTGRSIVYSCEWPLYMWPFQKPNYTEIRQYCNHWRNFADIDDSWKSIKSILDWTSFNQERIVDVAGPGGWNDPDMLVIGNFGLSWNQQVTQMALWAIMAAPLFMSNDLRHISPQAKALLQDKDVIAINQDPLGKQGYQLRQGDNFEVWERPLSGLAWAVAMINRQEIGGPRSYTIAVASLGKGVACNPACFITQLLPVKRKLGFYEWTSRLRSHINPTGTVLLQLENTMQMSLKDLL
modifications: apolipoprotein B-100 epitope + alpha galactosidase
In the case of B1, the “immune response towards the therapeutic protein” value [3] is reported as “does not elicit an immune response to alpha-galactosidase”.
